{"source": "patent US12036548B2", "about": "“Organs-on-chips as a platform for epigenetics discovery” (EMULATE, INC., priority 2018, dated 2024)", "origin": "cited, not measured here", "conditions": "normal nutritional iodine supply", "data": [{"smiles": "II", "note": "[iodine]", "values": [{"measurement": "fraction taken up and stored by a normally functioning thyroid gland", "value": "15-30%"}]}]}
